From patent US11407767B2, “Heterocyclyl substituted pyrrolopyridines that are inhibitors of the CDK12 kinase” (The University of Nottingham, priority 2017, dated 2022)
Counter-ions that a name gives are not always drawn.

target: CDK12/CycK (Homo sapiens, UniProt Q9NYV4); assay: Inhibition of CDK12 (ADP-Glo kinase assay); format: biochemical; conditions: 60 nM CDK12/CycK, 30 minutes pre-incubation, 1 μM ATP, 0.5 μM RBER-IRStide substrate, 1 h at 25° C., read-out: CDK12/cyclin K IC50
Procedure, shortened: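 ADP-Glo luminescence read after a 1 h, 25 °C reaction with 1 μM ATP and 0.5 μM RBER-IRStide peptide. Enzyme (60 nM) and compound were first pre-incubated 30 min; buffer 50 mM HEPES pH 7.5, 20 mM MgCl2, 3 mM MnCl2, 1% DMSO. IC50 fitted after blank subtraction.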

Sequence of CDK12/CycK (Q9NYV4 whole entry): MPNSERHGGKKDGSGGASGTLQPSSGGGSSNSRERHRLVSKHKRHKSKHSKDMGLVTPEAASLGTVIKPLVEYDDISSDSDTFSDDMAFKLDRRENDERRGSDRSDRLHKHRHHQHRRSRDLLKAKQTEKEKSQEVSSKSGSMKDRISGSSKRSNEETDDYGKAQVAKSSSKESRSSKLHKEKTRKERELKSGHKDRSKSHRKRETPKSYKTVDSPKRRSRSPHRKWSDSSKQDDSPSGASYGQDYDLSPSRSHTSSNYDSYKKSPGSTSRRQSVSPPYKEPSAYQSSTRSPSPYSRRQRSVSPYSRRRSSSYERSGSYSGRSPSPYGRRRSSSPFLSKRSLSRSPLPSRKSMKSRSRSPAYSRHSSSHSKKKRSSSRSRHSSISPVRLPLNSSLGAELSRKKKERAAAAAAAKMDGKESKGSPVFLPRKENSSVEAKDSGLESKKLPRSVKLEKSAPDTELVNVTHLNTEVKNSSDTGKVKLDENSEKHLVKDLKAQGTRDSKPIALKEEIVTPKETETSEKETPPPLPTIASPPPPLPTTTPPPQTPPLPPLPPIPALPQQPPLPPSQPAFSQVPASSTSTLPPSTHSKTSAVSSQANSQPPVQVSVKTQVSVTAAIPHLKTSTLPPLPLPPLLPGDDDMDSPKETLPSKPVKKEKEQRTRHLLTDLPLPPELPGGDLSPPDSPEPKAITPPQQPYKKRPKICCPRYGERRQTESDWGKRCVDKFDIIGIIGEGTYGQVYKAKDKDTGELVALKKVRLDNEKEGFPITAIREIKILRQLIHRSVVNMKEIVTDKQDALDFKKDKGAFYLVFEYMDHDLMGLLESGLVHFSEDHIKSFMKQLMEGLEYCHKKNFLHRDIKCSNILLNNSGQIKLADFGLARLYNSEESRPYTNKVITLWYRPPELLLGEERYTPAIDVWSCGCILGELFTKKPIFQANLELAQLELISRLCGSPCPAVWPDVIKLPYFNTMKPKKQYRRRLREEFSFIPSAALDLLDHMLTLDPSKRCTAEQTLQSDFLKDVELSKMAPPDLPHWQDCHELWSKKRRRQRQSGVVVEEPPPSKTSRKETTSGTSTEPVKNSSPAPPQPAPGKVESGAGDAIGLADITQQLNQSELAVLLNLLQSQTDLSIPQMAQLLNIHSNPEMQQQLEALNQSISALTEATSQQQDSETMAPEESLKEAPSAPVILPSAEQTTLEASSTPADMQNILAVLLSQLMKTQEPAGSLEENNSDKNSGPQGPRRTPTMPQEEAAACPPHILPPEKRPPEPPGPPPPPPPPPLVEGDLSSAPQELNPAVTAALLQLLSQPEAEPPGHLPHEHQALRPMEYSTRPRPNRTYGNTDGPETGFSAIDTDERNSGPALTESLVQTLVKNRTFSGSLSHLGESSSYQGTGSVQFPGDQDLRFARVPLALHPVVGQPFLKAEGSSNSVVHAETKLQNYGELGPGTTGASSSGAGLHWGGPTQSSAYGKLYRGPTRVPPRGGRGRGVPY
Sequence of CDK12/CycK (O75909 whole entry partner): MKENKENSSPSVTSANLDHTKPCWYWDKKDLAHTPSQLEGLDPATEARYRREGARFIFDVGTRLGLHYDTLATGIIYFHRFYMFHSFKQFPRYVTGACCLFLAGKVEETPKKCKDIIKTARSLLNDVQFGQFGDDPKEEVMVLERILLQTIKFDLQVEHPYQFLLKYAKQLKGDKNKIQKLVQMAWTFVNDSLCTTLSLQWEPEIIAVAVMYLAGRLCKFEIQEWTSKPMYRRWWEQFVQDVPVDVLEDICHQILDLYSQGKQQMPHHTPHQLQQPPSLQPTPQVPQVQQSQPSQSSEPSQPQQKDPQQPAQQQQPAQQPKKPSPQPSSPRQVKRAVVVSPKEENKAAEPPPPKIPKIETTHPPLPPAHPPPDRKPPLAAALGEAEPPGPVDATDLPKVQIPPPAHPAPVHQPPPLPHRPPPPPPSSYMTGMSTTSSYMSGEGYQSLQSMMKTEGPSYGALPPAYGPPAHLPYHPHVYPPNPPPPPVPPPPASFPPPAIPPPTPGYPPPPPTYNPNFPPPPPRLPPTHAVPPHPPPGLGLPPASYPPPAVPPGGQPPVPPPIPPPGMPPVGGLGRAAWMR

SMILES	IC50 [µM]
C=CC(=O)N1CCOC[C@H]1C(=O)NCCc1cc2c(-c3cnn4ncccc34)ccnc2[nH]1 [Example 165, (S)-4-Acryloyl-N-(2-(4-(pyrazolo[1,5-b]pyridazin-3-yl)-1H-pyrrolo[2,3-b]pyridin-2-yl)ethyl)morpholine-3-carboxamide]	< 0.1
O=C(NCCc1cc2c(-c3cnn4ncccc34)ccnc2[nH]1)[C@@H]1CCCN1C(=O)C1=CCCC1 [Example 166, (S)-1-(Cyclopent-1-ene-1-carbonyl)-N-(2-(4-(pyrazolo[1,5-b]pyridazin-3-yl)-1H-pyrrolo[2,3-b]pyridin-2-yl)ethyl)pyrrolidine-2-carboxamide]	0.1 to 1
CN1CCC(OCc2cc3c(-c4cnn5ncccc45)ccnc3[nH]2)CC1 [Example 167, 3-(2-(((1-Methylpiperidin-4-yl)oxy)methyl)-1H-pyrrolo[2,3-b]pyridin-4-yl)pyrazolo[1,5-b]pyridazine diformate]	1 to 30
CN(C)CCOCc1cc2c(-c3cnn4ncccc34)ccnc2[nH]1 [Example 168, N,N-Dimethyl-2-((4-(pyrazolo[1,5-b]pyridazin-3-yl)-1H-pyrrolo[2,3-b]pyridin-2-yl)methoxy)ethan-1-amine Formate]	1 to 30
O=C(CCl)Nc1ccccc1C(=O)N1CCC(c2cc3c(-c4cnn5ncccc45)ccnc3[nH]2)C1 (centres unmarked) [Example 169, 2-Chloro-N-(2-(3-(4-(pyrazolo[1,5-b]pyridazin-3-yl)-1H-pyrrolo[2,3-b]pyridin-2-yl)pyrrolidine-1-carbonyl)phenyl)acetamide]	< 0.1
CCC(=O)Nc1cccc(C(=O)N2CCC(c3cc4c(-c5cnn6ncccc56)ccnc4[nH]3)C2)c1 (centres unmarked) [Example 173, N-(3-(3-(4-(Pyrazolo[1,5-b]pyridazin-3-yl)-1H-pyrrolo[2,3-b]pyridin-2-yl)pyrrolidine-1-carbonyl)phenyl)propionamide]	< 0.1
C=CC(=O)N1CC[C@H](C(=O)NCc2cc3c(-c4cnn5ncccc45)ccnc3[nH]2)C1 [Example 178, (S)-1-Acryloyl-N-((4-(pyrazolo[1,5-b]pyridazin-3-yl)-1H-pyrrolo[2,3-b]pyridin-2-yl)methyl)pyrrolidine-3-carboxamide]	1 to 30
C=CC(=O)N1CC[C@@H](C(=O)NCc2cc3c(-c4cnn5ncccc45)ccnc3[nH]2)C1 [Example 179, (R)-1-Acryloyl-N-((4-(pyrazolo[1,5-b]pyridazin-3-yl)-1H-pyrrolo[2,3-b]pyridin-2-yl)methyl)pyrrolidine-3-carboxamide]	1 to 30
C=CC(=O)Nc1cccc(C(=O)NCc2cc3c(-c4cnn5ncccc45)ccnc3[nH]2)c1 [Example 180, 3-Acrylamido-N-((4-(pyrazolo[1,5-b]pyridazin-3-yl)-1H-pyrrolo[2,3-b]pyridin-2-yl)methyl)benzamide]	0.1 to 1
CN(C)C/C=C/C(=O)Nc1ccc(C(=O)NCc2cc3c(-c4cnn5ncccc45)ccnc3[nH]2)cc1 [Example 181]	0.1 to 1
C=CC(=O)N1CCC[C@@H]1C(=O)NCc1cc2c(-c3cnn4ncccc34)ccnc2[nH]1 [Example 182, (R)-1-Acryloyl-N-((4-(pyrazolo[1,5-b]pyridazin-3-yl)-1H-pyrrolo[2,3-b]pyridin-2-yl)methyl)pyrrolidine-2-carboxamide]	1 to 30
C=CC(=O)N1CCC[C@H]1C(=O)NCc1cc2c(-c3cnn4ncccc34)ccnc2[nH]1 [Example 183, (S)-1-Acryloyl-N-((4-(pyrazolo[1,5-b]pyridazin-3-yl)-1H-pyrrolo[2,3-b]pyridin-2-yl)methyl)pyrrolidine-2-carboxamide]	1 to 30
C=CC(=O)N1CCC[C@@H](C(=O)NCc2cc3c(-c4cnn5ncccc45)ccnc3[nH]2)C1 [Example 184, (R)-1-Acryloyl-N-((4-(pyrazolo[1,5-b]pyridazin-3-yl)-1H-pyrrolo[2,3-b]pyridin-2-yl)methyl)piperidine-3-carboxamide]	1 to 30
C=CC(=O)Nc1ccc(C(=O)N(C)Cc2cc3c(-c4cnn5ncccc45)ccnc3[nH]2)cc1 [Example 185, 4-Acrylamido-N-methyl-N-((4-(pyrazolo[1,5-b]pyridazin-3-yl)-1H-pyrrolo[2,3-b]pyridin-2-yl)methyl)benzamide]	< 0.1
C=CC(=O)N1CCC[C@H](C(=O)NCc2cc3c(-c4cnn5ncccc45)ccnc3[nH]2)C1 [Example 186, (S)-1-Acryloyl-N-((4-(pyrazolo[1,5-b]pyridazin-3-yl)-1H-pyrrolo[2,3-b]pyridin-2-yl)methyl)piperidine-3-carboxamide]	1 to 30
C=CC(=O)N[C@H]1CC[C@@H](C(=O)NCc2cc3c(-c4cnn5ncccc45)ccnc3[nH]2)CC1 [Example 187, (1s,4s)-4-Acrylamido-N-((4-(pyrazolo[1,5-b]pyridazin-3-yl)-1H-pyrrolo[2,3-b]pyridin-2-yl)methyl)cyclohexane-1-carboxamide]	1 to 30
CCC(=O)Nc1ccc(C(=O)NCc2cc3c(-c4cnn5ncccc45)ccnc3[nH]2)cc1 [Example 188, 4-Propionamido-N-((4-(pyrazolo[1,5-b]pyridazin-3-yl)-1H-pyrrolo[2,3-b]pyridin-2-yl)methyl)benzamide]	1 to 30
C=CC(=O)NCc1ccc(C(=O)NCc2cc3c(-c4cnn5ncccc45)ccnc3[nH]2)cc1 [Example 189, 4-(Acrylamidomethyl)-N-((4-(pyrazolo[1,5-b]pyridazin-3-yl)-1H-pyrrolo[2,3-b]pyridin-2-yl)methyl)benzamide]	1 to 30
C=CC(=O)N(C)c1ccc(C(=O)NCc2cc3c(-c4cnn5ncccc45)ccnc3[nH]2)cc1 [Example 190, 4-(N-Methylacrylamido)-N-((4-(pyrazolo[1,5-b]pyridazin-3-yl)-1H-pyrrolo[2,3-b]pyridin-2-yl)methyl)benzamide]	0.1 to 1
C=CC(=O)N[C@H]1CC[C@H](C(=O)NCc2cc3c(-c4cnn5ncccc45)ccnc3[nH]2)CC1 [Example 191, (1r,4r)-4-Acrylamido-N-((4-(pyrazolo[1,5-b]pyridazin-3-yl)-1H-pyrrolo[2,3-b]pyridin-2-yl)methyl)cyclohexane-1-carboxamide]	1 to 30
C=CC(=O)NCc1cccc(C(=O)NCc2cc3c(-c4cnn5ncccc45)ccnc3[nH]2)c1 [Example 192, 3-(Acrylamidomethyl)-N-((4-(pyrazolo[1,5-b]pyridazin-3-yl)-1H-pyrrolo[2,3-b]pyridin-2-yl)methyl)benzamide]	1 to 30
C=CC(=O)N1CCC(CC(=O)NCc2cc3c(-c4cnn5ncccc45)ccnc3[nH]2)CC1 [Example 193, 2-(1-Acryloylpiperidin-4-yl)-N-((4-(pyrazolo[1,5-b]pyridazin-3-yl)-1H-pyrrolo[2,3-b]pyridin-2-yl)methyl)acetamide]	1 to 30

Next, values leading:

IC50 [µM]	SMILES
< 0.1	C#CC(=O)N1CCC(C(=O)N2CCC(c3cc4c(-c5cnn6ncccc56)ccnc4[nH]3)C2)CC1 (centres unmarked) [Example 147, 1-(4-(3-(4-(Pyrazolo[1,5-b]pyridazin-3-yl)-1H-pyrrolo[2,3-b]pyridin-2-yl)pyrrolidine-1-carbonyl)piperidin-1-yl)prop-2-yn-1-one]
< 0.1	C=CC(=O)Nc1ccc(C(=O)N2CC[C@H](c3cc4c(-c5cnn6ncccc56)ccnc4[nH]3)C2)cc1 [Example 150]
< 0.1	C=CC(=O)NCC(=O)N1CCC(c2cc3c(-c4cnn5ncccc45)ccnc3[nH]2)C1 (centres unmarked) [Example 152, N-(2-Oxo-2-(3-(4-(pyrazolo[1,5-b]pyridazin-3-yl)-1H-pyrrolo[2,3-b]pyridin-2-yl)pyrrolidin-1-yl)ethyl)acrylamide]
< 0.1	C=CC(=O)N1CCC[C@H]1C(=O)N1CCC(c2cc3c(-c4cnn5ncccc45)ccnc3[nH]2)C1 (stereo partly drawn) [Example 153, 1-((2S)-2-(3-(4-(Pyrazolo[1,5-b]pyridazin-3-yl)-1H-pyrrolo[2,3-b]pyridin-2-yl)pyrrolidine-1-carbonyl)pyrrolidin-1-yl)prop-2-en-1-one]
< 0.1	C=CC(=O)N1CCC[C@@H]1C(=O)N1CCC(c2cc3c(-c4cnn5ncccc45)ccnc3[nH]2)C1 (stereo partly drawn) [Example 154, 1-((2R)-2-(3-(4-(Pyrazolo[1,5-b]pyridazin-3-yl)-1H-pyrrolo[2,3-b]pyridin-2-yl)pyrrolidine-1-carbonyl)pyrrolidin-1-yl)prop-2-en-1-one]
< 0.1	O=C([C@@H]1CCCN1C(=O)CCl)N1CCC(c2cc3c(-c4cnn5ncccc45)ccnc3[nH]2)C1 (stereo partly drawn) [Example 155, 2-Chloro-1-((2S)-2-(3-(4-(pyrazolo[1,5-b]pyridazin-3-yl)-1H-pyrrolo[2,3-b]pyridin-2-yl)pyrrolidine-1-carbonyl)pyrrolidin-1-yl)ethan-1-one]
< 0.1	O=C(CCl)NCC(=O)N1CCC(c2cc3c(-c4cnn5ncccc45)ccnc3[nH]2)C1 (centres unmarked) [Example 157, 2-Chloro-N-(2-oxo-2-(3-(4-(pyrazolo[1,5-b]pyridazin-3-yl)-1H-pyrrolo[2,3-b]pyridin-2-yl)pyrrolidin-1-yl)ethyl)acetamide]
< 0.1	O=C(CCl)N1CCC(C(=O)N2CCC(c3cc4c(-c5cnn6ncccc56)ccnc4[nH]3)C2)CC1 (centres unmarked) [Example 158, 2-Chloro-1-(4-(3-(4-(pyrazolo[1,5-b]pyridazin-3-yl)-1H-pyrrolo[2,3-b]pyridin-2-yl)pyrrolidine-1-carbonyl)piperidin-1-yl)ethan-1-one]
< 0.1	C=CC(=O)N1CCC[C@H]1C(=O)N1CC[C@H](c2cc3c(-c4cnn5ncccc45)ccnc3[nH]2)C1 [Example 162, 1-((S)-2-((S)-3-(4-(Pyrazolo[1,5-b]pyridazin-3-yl)-1H-pyrrolo[2,3-b]pyridin-2-yl)pyrrolidine-1-carbonyl)pyrrolidin-1-yl)prop-2-en-1-one]
< 0.1	COCCC(=O)Nc1ccccc1C(=O)N1CCC(c2cc3c(-c4cnn5ncccc45)ccnc3[nH]2)C1 (centres unmarked) [Example 163, 3-Methoxy-N-(2-(3-(4-(pyrazolo[1,5-b]pyridazin-3-yl)-1H-pyrrolo[2,3-b]pyridin-2-yl)pyrrolidine-1-carbonyl)phenyl)propanamide Formate Salt]
